In PubChem BioAssay AID248 (DTP/NCI, 2004):
Inconclusive results and toxic doses are left out. No stated cut-off is given here; in the data, active means T/C of 150% or more; inactive means T/C below 125%.

Test system: L1210 leukemia ip in BDF1 mice, survival T/C
Experiment: NCI In Vivo Anticancer Drug Screen. Data for tumor model L1210 Leukemia (intraperitoneal) in B6D2F1 (BDF1) mice
Conditions: endpoint: mean survival time, higher = longer survival
How it was run: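 Tumor was transplanted into mice, which were then dosed with test compound or vehicle alone. Survival was recorded for each group, and the treated figure was expressed relative to the control figure.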

[1] = dose: 100.0 mg/kg/injection, schedule: Q01DX009 (ip), vehicle: Klucel (hydroxypropylcellulose) (HPC)
[2] = dose: 200.0 mg/kg/injection, schedule: Q01DX009 (ip), vehicle: Klucel (hydroxypropylcellulose) (HPC)
[3] = dose: 400.0 mg/kg/injection, schedule: Q01DX009 (ip), vehicle: Klucel (hydroxypropylcellulose) (HPC)
[4] = dose: 100.0 mg/kg/injection, schedule: Q01DX001 (ip), vehicle: saline
[5] = dose: 200.0 mg/kg/injection, schedule: Q01DX001 (ip), vehicle: saline
[6] = dose: 400.0 mg/kg/injection, schedule: Q01DX001 (ip), vehicle: saline
[7] = dose: 12.5 mg/kg/injection, schedule: Q01DX009 (ip), vehicle: saline with Tween-80
[8] = dose: 25.0 mg/kg/injection, schedule: Q01DX009 (ip), vehicle: saline with Tween-80
[9] = dose: 100.0 mg/kg/injection, schedule: Q04DX003 (ip), vehicle: Klucel (hydroxypropylcellulose) (HPC)
[10] = dose: 200.0 mg/kg/injection, schedule: Q04DX003 (ip), vehicle: Klucel (hydroxypropylcellulose) (HPC)
[11] = dose: 400.0 mg/kg/injection, schedule: Q04DX003 (ip), vehicle: Klucel (hydroxypropylcellulose) (HPC)
[12] = dose: 50.0 mg/kg/injection, schedule: Q01DX009 (ip), vehicle: saline with Tween-80
[13] = dose: 100.0 mg/kg/injection, schedule: Q04DX003 (ip), vehicle: saline with Tween-80
[14] = dose: 200.0 mg/kg/injection, schedule: Q04DX003 (ip), vehicle: saline with Tween-80
[15] = dose: 400.0 mg/kg/injection, schedule: Q04DX003 (ip), vehicle: saline with Tween-80
[16] = dose: 12.5 mg/kg/injection, schedule: Q04DX002 (ip), vehicle: Klucel (hydroxypropylcellulose) (HPC)
[17] = dose: 25.0 mg/kg/injection, schedule: Q04DX002 (ip), vehicle: Klucel (hydroxypropylcellulose) (HPC)
[18] = dose: 50.0 mg/kg/injection, schedule: Q04DX002 (ip), vehicle: Klucel (hydroxypropylcellulose) (HPC)
[19] = dose: 100.0 mg/kg/injection, schedule: Q04DX003 (ip), vehicle: saline

Measured: T/C

CCCCCCC(/C=N/NC(=O)CCCCCCCCC(=O)N/N=C/C(=C/c1ccccc1)CCCCCC)=C\c1ccccc1
inactive: [1] 93 % of control | [2] 98 % of control | [3] 91 % of control

N#Cc1ccccc1CCc1ccccc1
inactive: dose: 50.0 mg/kg/injection, schedule: Q01DX001 (ip), vehicle: saline 106 % of control | [4] 102 % of control | [5] 106 % of control | [6] 98 % of control

O=C(c1ccc([N+](=O)[O-])cc1)c1ccc(O)cc1O
inactive: dose: 100.0 mg/kg/injection, schedule: Q01DX001 (ip), vehicle: other 101 % of control | dose: 100.0 mg/kg/injection, schedule: Q04DX003 (ip), vehicle: other 100 % of control | dose: 200.0 mg/kg/injection, schedule: Q01DX001 (ip), vehicle: other 101 % of control | dose: 200.0 mg/kg/injection, schedule: Q04DX003 (ip), vehicle: other 101 % of control | dose: 400.0 mg/kg/injection, schedule: Q01DX001 (ip), vehicle: other 103 % of control | dose: 400.0 mg/kg/injection, schedule: Q04DX003 (ip), vehicle: other 97 % of control

Cc1cc(CN(C)C)cc(C(C)C)c1O
inactive: [7] 96 % of control | [8] 97 % of control

O=C(/C=C/c1cccc([N+](=O)[O-])c1)NCCBr
inactive: [1] 101 % of control | [9] 95 % of control | [2] 101 % of control | [10] 97 % of control | [11] 95 % of control

NC(N)=N/N=C(C(=O)O)/C(=N\N=C(N)N)C(=O)O
inactive: dose: 30.0 mg/kg/injection, schedule: Q01DX Z (oral), vehicle: carboxymethylcellulose (CMC) 101 % of control | dose: 60.0 mg/kg/injection, schedule: Q01DX Z (oral), vehicle: carboxymethylcellulose (CMC) 101 % of control | dose: 120.0 mg/kg/injection, schedule: Q01DX Z (oral), vehicle: carboxymethylcellulose (CMC) 101 % of control | dose: 240.0 mg/kg/injection, schedule: Q01DX Z (oral), vehicle: carboxymethylcellulose (CMC) 109 % of control | dose: 480.0 mg/kg/injection, schedule: Q01DX Z (oral), vehicle: carboxymethylcellulose (CMC) 106 % of control | dose: 960.0 mg/kg/injection, schedule: Q01DX Z (oral), vehicle: carboxymethylcellulose (CMC) 106 % of control

CN(C)c1ccc(/C=N/NC(=S)Nc2cccc3cccnc23)cc1
inactive: [4] 105 % of control | [5] 102 % of control | [6] 96 % of control

CN(C)c1ccc(/C=C(\C#N)c2nc3ccccc3[nH]2)cc1
inactive: dose: 100.0 mg/kg/injection, schedule: Q01DX001 (ip), vehicle: Klucel (hydroxypropylcellulose) (HPC) 96 % of control | [9] 91 % of control | dose: 200.0 mg/kg/injection, schedule: Q01DX001 (ip), vehicle: Klucel (hydroxypropylcellulose) (HPC) 99 % of control | [10] 94 % of control | dose: 400.0 mg/kg/injection, schedule: Q01DX001 (ip), vehicle: Klucel (hydroxypropylcellulose) (HPC) 96 % of control | [11] 93 % of control

CCCCC(I)C(C)(C)[n+]1ccccc1 (stereo not given)
inactive: [7] 119 % of control | dose: 12.5 mg/kg/injection, schedule: Q04DX003 (ip), vehicle: saline with Tween-80 100 % of control | [8] 106 % of control | dose: 25.0 mg/kg/injection, schedule: Q04DX003 (ip), vehicle: saline with Tween-80 96 % of control | [12] 101 % of control | dose: 50.0 mg/kg/injection, schedule: Q04DX003 (ip), vehicle: saline with Tween-80 100 % of control

O=C1C(NC(=O)C(Cl)Cl)=C(N2CC2)C(=O)c2ccccc21
inactive: [9] 98 % of control | [10] 102 % of control | [11] 98 % of control

CC(C)CCCC(C)C1CCC2C3CC4C(F)(Cl)C45CC4(CCC5(C)C3CCC12C)OCCO4 (stereo not given)
inactive: dose: 100.0 mg/kg/injection, schedule: Q04DX002 (ip), vehicle: other 87 % of control | dose: 200.0 mg/kg/injection, schedule: Q04DX002 (ip), vehicle: other 114 % of control | dose: 400.0 mg/kg/injection, schedule: Q04DX002 (ip), vehicle: other 93 % of control

[N-]=[N+]=C1C(Cl)=C(Cl)C(Cl)=C1Cl
inactive: dose: 75.0 mg/kg/injection, schedule: Q01DX001 (ip), vehicle: other 96 % of control | dose: 150.0 mg/kg/injection, schedule: Q01DX001 (ip), vehicle: other 102 % of control

NS(=O)(=O)O
inactive: [7] 103 % of control | [8] 95 % of control | [12] 89 % of control

CC(=O)c1ccc(S(=O)(=O)c2ccccc2)cc1
inactive: dose: 50.0 mg/kg/injection, schedule: Q01DX001 (ip), vehicle: carboxymethylcellulose (CMC) 93 % of control | dose: 100.0 mg/kg/injection, schedule: Q01DX001 (ip), vehicle: carboxymethylcellulose (CMC) 93 % of control | [13] 96 % of control | dose: 200.0 mg/kg/injection, schedule: Q01DX001 (ip), vehicle: carboxymethylcellulose (CMC) 101 % of control | [14] 91 % of control | dose: 400.0 mg/kg/injection, schedule: Q01DX001 (ip), vehicle: carboxymethylcellulose (CMC) 95 % of control | [15] 107 % of control

CCCCCCCCCCCCCCCCS(=O)(=O)CCO
inactive: dose: 100.0 mg/kg/injection, schedule: Q01DX009 (ip), vehicle: saline with Tween-80 98 % of control | dose: 200.0 mg/kg/injection, schedule: Q01DX009 (ip), vehicle: saline with Tween-80 93 % of control | dose: 400.0 mg/kg/injection, schedule: Q01DX009 (ip), vehicle: saline with Tween-80 92 % of control

CC1(C(Cl)Cl)C(=O)C=Cc2ccccc21 (stereo not given)
inactive: dose: 100.0 mg/kg/injection, schedule: Q04DX002 (ip), vehicle: saline with Tween-80 95 % of control | dose: 200.0 mg/kg/injection, schedule: Q04DX002 (ip), vehicle: saline with Tween-80 98 % of control | dose: 400.0 mg/kg/injection, schedule: Q04DX002 (ip), vehicle: saline with Tween-80 95 % of control

COc1ccc(OC)c(NC(=S)N/N=C(/C)c2cc(Cl)c(C)cc2O)c1
inactive: [16] 112 % of control | [17] 97 % of control | [18] 97 % of control

O=c1c(-c2ccccc2)c(-c2ccccc2)n2n1C1CCC2C1 (stereo not given)
inactive: [4] 95 % of control | [5] 89 % of control | [6] 110 % of control

CC(O)C(c1ccccc1)S(C)(=O)=O (stereo not given)
inactive: [1] 117 % of control | [9] 104 % of control | [2] 96 % of control | [10] 111 % of control | [3] 95 % of control | [11] 94 % of control

Cc1ccc(C[n+]2cccc(NC(=O)COc3ccc(Cl)c(Cl)c3)c2)cc1
inactive: [13] 95 % of control | [14] 93 % of control | [15] 98 % of control

Cc1ccc(S(=O)(=O)COS(=O)(=O)C(F)(F)F)cc1
inactive: [9] 93 % of control | [10] 93 % of control

Cc1ccc(S(=O)(=O)OC2CCC(C(C)(C)C)CC2Cl)cc1 (stereo not given)
inactive: [1] 98 % of control | [19] 98 % of control | [2] 108 % of control | dose: 200.0 mg/kg/injection, schedule: Q04DX003 (ip), vehicle: saline 98 % of control | [3] 98 % of control | dose: 400.0 mg/kg/injection, schedule: Q04DX003 (ip), vehicle: saline 94 % of control

COc1ccc2c(c1)CN(S(=O)(=O)c1ccc(C)cc1)CCC2O (stereo not given)
inactive: [1] 96 % of control | [9] 96 % of control | [2] 116 % of control | [10] 114 % of control | [3] 98 % of control | [11] 96 % of control

CC(C)C(=O)[O][Pb]([c]1ccccc1)([c]1ccccc1)[c]1ccccc1
inactive: [16] 101 % of control | [17] 97 % of control | [18] 97 % of control

O=C1c2ccccc2-c2cc3ccccc3cc21
inactive: [4] 100 % of control | [1] 92 % of control | [9] 108 % of control | [5] 101 % of control | [2] 92 % of control | [10] 108 % of control | [6] 103 % of control | [3] 90 % of control | [11] 110 % of control

CC(C)N(CCCOC(=O)c1ccc(N)cc1)C(C)C
inactive: dose: 25.0 mg/kg/injection, schedule: Q01DX009 (ip), vehicle: saline 95 % of control | dose: 50.0 mg/kg/injection, schedule: Q01DX009 (ip), vehicle: saline 109 % of control | dose: 100.0 mg/kg/injection, schedule: Q01DX009 (ip), vehicle: saline 106 % of control | [19] 105 % of control
